Reference: ChEMBL document CHEMBL1201862, “PubChem BioAssay data set” (2004)
Blank lines part the entries; values can stand above or below the compound they belong to. The source made the active and inactive calls.

Assays:
[1] = biological target: Heat shock protein HSP 90-alpha (Homo sapiens, UniProt P07900); type: functional, organism-based
[2] = system: INS1; assay: INS-1E survival protection against cytokine death – cell-based, luminescence, retest, dose response (AID 449756); type: functional; details: Rattus norvegicus;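 note: cell death triggered by IL-1 beta plus TNF-alpha plus IFN-gamma mixture; protective hits raise ATP signal compared with cytokine alone wells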
[3] = off-target signal loss in HeLa-CEM21 co-culture – HeLa F-luc CTL cells, cherry-picked, counter-screen for HIV-1 Env fusion inhibitor project, dose response (AID 652040); type: functional, cell-based;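 note: potency for signal decrease marking cytotoxic or nonspecific inhibition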
[4] = biological target: T1, Fatty acid synthase (Homo sapiens, UniProt P49327); assay: inhibition of human FAS-TE enzyme activity – biochemical, kinetic fluorescence intensity, dose response (AID 624326); type: functional;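 note: rate of fluorescence rise from hydrolysis of a fluorogenic O-methyl fluorescein ester substrate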
[5] = biological target: T1, Fatty acid synthase; assay: inhibition of human FAS-TE enzyme activity – biochemical, endpoint fluorescence intensity, uHTS hits, dose response (AID 624327); type: functional;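 note: fluorescence from hydrolysis of an O-methyl fluorescein acyl ester substrate by the enzyme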
[6] = intracellular Trypanosoma cruzi inhibitors in host cells – cell-based, plate reader, cherry-pick samples, set 3, dose response (AID 651818); type: functional;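 note: compounds incubated with infected cells for about four days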
[7] = Trypanosoma cruzi growth suppression in host cells – NIH3T3 host cells, beta-gal luminescence, confirmation (AID 2044); type: functional, cell-based;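 note: intracellular parasites grown in NIH/3T3 mouse fibroblasts as host cells; luminescent beta-galactosidase reporter signal from transgenic T. cruzi replicating inside host cells; inhibitors lower the luminescence signal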
[8] = biological target: T2, Polyadenylate-binding protein 1 (Homo sapiens, UniProt P11940); assay: MLLE binding blockers, Cy5 peptide tracer – biochemical, fluorescence polarization, Cy5-PAM2 peptide, secondary, miRNA deadenylation inhibitor project, dose response (AID 602260); type: functional; details: read-out: IC50_Mean
[9] = biological target: T2, Polyadenylate-binding protein 1; assay: MLLE domain peptide-binding blockers, IC50 – biochemical, fluorescence polarization, FITC-PAM2 peptide, dose response (AID 602259); type: functional; details: read-out: IC50_Mean
[10] = NIH3T3 cell viability loss – ATP luminescence, mouse fibroblasts, counter-screen, dose response (AID 2010); type: functional, cell-based;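 note: cells exposed to compound for about 90 hours before reading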
[11] = HIV-1 AD8 envelope cell-cell fusion blockers – cherry-pick, dose response (AID 652062); type: functional, cell-based;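 note: luciferase signal from cell-cell fusion driven by HIV-1 clade B AD8 Env; potency is for inhibitors of fusion seen as a drop in luminescence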
[12] = blockers of HIV-1 envelope-mediated cell-cell fusion – cherry-pick, dose response (AID 652057); type: functional, cell-based
[13] = system: Streptococcus sp. 'group A'; assay: Streptococcus pyogenes SK(-)GAS viability under kanamycin – luminescence, BacTiterGlo, confirmation, counter-screen for streptokinase expression inhibitor project, dose response (AID 1900); type: functional, organism-based
[14] = system: Streptococcus; assay: GAS UMAA2166 growth inhibition – luminescence, BacTiterGlo, counter-screen for streptokinase expression inhibitor project, dose response (AID 1915); type: functional, organism-based;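 note: potency for reduction of bacterial viability or growth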

T2 sequence (P11940 whole entry, the tested form may be a part): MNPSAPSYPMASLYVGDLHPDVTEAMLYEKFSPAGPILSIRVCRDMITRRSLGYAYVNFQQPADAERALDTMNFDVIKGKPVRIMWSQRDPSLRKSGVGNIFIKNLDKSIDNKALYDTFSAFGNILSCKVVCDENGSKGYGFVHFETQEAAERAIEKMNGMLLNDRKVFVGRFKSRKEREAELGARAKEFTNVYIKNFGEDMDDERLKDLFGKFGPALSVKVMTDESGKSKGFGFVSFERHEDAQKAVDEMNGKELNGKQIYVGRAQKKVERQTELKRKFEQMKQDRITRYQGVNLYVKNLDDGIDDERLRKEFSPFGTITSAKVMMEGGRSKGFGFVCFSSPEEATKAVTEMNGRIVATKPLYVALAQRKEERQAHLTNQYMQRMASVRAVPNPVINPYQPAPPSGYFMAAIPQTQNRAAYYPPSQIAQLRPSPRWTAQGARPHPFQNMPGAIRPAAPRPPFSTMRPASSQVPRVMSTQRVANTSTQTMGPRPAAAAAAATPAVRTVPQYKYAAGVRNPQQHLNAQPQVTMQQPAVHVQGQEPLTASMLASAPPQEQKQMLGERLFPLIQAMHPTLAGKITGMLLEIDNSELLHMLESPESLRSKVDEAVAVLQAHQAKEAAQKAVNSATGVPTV
T1 sequence (P49327 whole entry): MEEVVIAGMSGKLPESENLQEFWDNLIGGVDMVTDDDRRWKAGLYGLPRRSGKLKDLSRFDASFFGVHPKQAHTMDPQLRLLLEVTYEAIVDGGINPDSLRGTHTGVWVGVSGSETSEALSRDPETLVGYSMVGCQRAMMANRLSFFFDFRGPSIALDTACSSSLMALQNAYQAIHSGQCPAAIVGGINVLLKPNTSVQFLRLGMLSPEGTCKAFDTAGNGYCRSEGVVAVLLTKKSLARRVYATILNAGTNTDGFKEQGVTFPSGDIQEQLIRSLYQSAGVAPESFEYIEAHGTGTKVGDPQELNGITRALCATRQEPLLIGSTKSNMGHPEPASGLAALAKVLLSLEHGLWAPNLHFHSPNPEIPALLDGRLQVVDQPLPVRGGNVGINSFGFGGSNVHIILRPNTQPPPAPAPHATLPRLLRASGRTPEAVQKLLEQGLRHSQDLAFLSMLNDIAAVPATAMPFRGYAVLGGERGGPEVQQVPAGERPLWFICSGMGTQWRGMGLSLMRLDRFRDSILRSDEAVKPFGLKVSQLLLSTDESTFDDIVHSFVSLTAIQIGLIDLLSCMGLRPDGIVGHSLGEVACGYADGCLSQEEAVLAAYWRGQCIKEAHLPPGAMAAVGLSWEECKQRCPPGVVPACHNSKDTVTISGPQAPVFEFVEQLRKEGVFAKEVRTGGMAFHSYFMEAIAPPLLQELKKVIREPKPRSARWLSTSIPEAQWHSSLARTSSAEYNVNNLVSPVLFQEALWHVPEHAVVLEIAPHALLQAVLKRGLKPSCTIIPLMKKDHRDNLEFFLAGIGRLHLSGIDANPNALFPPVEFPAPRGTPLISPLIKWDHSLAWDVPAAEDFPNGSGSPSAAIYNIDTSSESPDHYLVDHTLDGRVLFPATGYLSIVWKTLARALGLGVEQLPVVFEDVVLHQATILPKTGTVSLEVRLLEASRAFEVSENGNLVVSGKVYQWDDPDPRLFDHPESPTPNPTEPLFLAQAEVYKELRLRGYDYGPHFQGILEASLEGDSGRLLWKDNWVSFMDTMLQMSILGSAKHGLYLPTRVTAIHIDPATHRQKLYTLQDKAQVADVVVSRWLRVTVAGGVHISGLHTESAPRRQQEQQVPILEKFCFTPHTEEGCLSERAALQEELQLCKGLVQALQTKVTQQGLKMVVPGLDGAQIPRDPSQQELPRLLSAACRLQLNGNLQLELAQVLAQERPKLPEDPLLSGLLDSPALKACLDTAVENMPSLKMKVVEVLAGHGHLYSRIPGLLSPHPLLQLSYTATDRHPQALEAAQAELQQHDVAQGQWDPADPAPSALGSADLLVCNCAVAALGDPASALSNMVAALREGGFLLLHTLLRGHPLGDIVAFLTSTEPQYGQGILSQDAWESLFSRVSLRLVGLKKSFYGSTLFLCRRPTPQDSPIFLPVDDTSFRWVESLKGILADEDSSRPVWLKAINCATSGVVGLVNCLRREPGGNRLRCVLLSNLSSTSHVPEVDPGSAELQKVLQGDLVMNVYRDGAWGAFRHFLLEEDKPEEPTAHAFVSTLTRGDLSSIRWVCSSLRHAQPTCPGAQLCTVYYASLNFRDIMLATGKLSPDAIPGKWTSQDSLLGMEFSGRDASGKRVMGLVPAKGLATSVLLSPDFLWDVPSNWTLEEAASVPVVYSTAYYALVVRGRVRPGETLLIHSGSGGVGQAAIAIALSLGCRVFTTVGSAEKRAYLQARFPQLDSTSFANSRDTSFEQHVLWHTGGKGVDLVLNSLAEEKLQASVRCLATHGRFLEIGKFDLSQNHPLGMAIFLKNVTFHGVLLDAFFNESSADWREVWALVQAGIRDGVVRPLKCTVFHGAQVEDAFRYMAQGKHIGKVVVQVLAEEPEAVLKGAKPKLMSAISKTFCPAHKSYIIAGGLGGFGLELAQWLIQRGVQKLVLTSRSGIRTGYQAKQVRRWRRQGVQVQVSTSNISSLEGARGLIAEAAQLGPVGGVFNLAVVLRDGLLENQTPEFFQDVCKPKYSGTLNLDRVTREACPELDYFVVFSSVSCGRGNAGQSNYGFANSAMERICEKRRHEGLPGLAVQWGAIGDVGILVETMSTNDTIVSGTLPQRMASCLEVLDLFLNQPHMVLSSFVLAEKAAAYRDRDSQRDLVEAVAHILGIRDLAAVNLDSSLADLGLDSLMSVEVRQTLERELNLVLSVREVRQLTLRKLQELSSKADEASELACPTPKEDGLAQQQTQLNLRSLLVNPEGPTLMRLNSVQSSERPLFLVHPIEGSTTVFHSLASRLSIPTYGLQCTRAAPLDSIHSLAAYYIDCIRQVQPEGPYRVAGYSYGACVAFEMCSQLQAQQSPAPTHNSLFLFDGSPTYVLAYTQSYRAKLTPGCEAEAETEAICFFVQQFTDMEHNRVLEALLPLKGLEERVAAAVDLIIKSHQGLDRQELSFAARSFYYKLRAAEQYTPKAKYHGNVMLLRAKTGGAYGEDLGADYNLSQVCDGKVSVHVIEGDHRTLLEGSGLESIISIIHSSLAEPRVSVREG

Structure (SMILES): Nc1c(C(=O)Nc2ccc3c(c2)OCCO3)nnn1Cc1ccccc1Cl
AC50 [1]: 10.3 µM (active)
AC50 [2]: 0.653 µM (active)

Structure (SMILES): CC(C)(C)c1ccc(-n2ncc3c2CCCC3NC(=O)CN2CCCC2=O)cc1 (stereo not given)
AC50 [3]: > 32 µM (inactive)

IC50 [4]: 8.23 µM (active)
IC50 [5]: 7.42 µM (active)
Structure (SMILES): N#Cc1cc(-c2ccccc2)cn(Cc2c(Cl)cccc2Cl)c1=O

Structure (SMILES): C[C@H](CO)N1C[C@H](C)[C@@H](CN(C)CC2CCCCC2)Oc2c(NS(=O)(=O)c3cccs3)cccc2C1=O
AC50 [6]: 19.7 µM (active)

IC50 [4]: 10.6 µM (active)
IC50 [5]: 16.5 µM (active)
Structure (SMILES): O=[N+]([O-])c1cccc(NC(=S)N2CCc3ccccc3C2)c1

Structure (SMILES): C[C@@H]1CN([C@H](C)CO)C(=O)c2cc(NS(=O)(=O)c3ccc(Cl)cc3)ccc2O[C@@H]1CN(C)Cc1ccc(Cl)c(Cl)c1
AC50 [6]: 4.7 µM (active)

Structure (SMILES): O=C(NC(=S)Nc1ccc(Oc2ccccc2)cc1)c1ccc(Cl)cc1
EC50 [7]: 2.34 µM (active)
IC50 [8]: > 66 µM (inactive)
IC50 [9]: > 66 µM (inactive)
EC50 [10]: > 60 µM (not active)

IC50 [4]: 16.2 µM (active)
IC50 [5]: 14.2 µM (active)
Structure (SMILES): O=C(c1ccc(Cl)c([N+](=O)[O-])c1)N1CCN(S(=O)(=O)c2ccc(Cl)cc2)CC1

IC50 [8]: > 66 µM (inactive)
IC50 [9]: > 66 µM (inactive)
Structure (SMILES): O=C(CSc1nc(O)c(Cc2ccccc2)c(=O)[nH]1)Nc1ccccc1

IC50 [4]: 7.38 µM (active)
IC50 [5]: 8.77 µM (active)
Structure (SMILES): O=C(CCNC(=O)c1ccc([N+](=O)[O-])cc1)NCCc1ccc(Cl)cc1

Structure (SMILES): Cc1noc(C)c1S(=O)(=O)Nc1ccc2c(c1)C(=O)N([C@H](C)CO)C[C@H](C)[C@H](CN(C)Cc1ccc(C(=O)Nc3ccccc3N)cc1)O2
AC50 [6]: 3.11 µM (active)

Structure (SMILES): Cc1ccc(S(=O)(=O)NCC(=O)OCC(=O)NCc2ccc3c(c2)OCO3)cc1
AC50 [11]: 5.22 µM (active)
AC50 [12]: 24 µM (active)

AC50 [1]: 0.357 µM (active)
Structure (SMILES): O=C(O)c1cccc2c1Cc1cc([N+](=O)[O-])ccc1-2

Structure (SMILES): C[C@@H]1CN([C@H](C)CO)C(=O)Cc2cc(NC(=O)Cc3cn(C)c4ccccc34)ccc2O[C@H]1CN(C)Cc1ccc(Oc2ccccc2)cc1
AC50 [6]: 3.74 µM (active)

Structure (SMILES): C[C@H](CO)N1C[C@H](C)[C@H](CN(C)Cc2ccc(C(=O)Nc3ccccc3N)cc2)Oc2ccc(NC(=O)Nc3ccccc3)cc2CC1=O
AC50 [6]: 2.98 µM (active)

Structure (SMILES): O=C(Nc1cccc(C(F)(F)F)c1)Oc1ccc(Cl)c2cccnc12
EC50 [13]: 2.54 µM (active)
AC50 [1]: 3.86 µM (active)
EC50 [14]: 4.98 µM (active)
AC50 [2]: 7.15 µM (active)

IC50 [8]: > 66 µM (inactive)
IC50 [9]: > 66 µM (inactive)
Structure (SMILES): CC(OC(=O)CSc1ccc([N+](=O)[O-])cc1)C(=O)NC1CC1 (stereo not given)

Structure (SMILES): C[C@@H]1CN([C@@H](C)CO)C(=O)Cc2cc(NC(=O)Nc3ccc(C(F)(F)F)cc3)ccc2O[C@@H]1CN(C)CC1CCCCC1
AC50 [6]: 1.93 µM (active)

Structure (SMILES): C[C@H](CO)N1C[C@H](C)[C@H](CN(C)Cc2ccc3c(c2)OCO3)Oc2ccc(NC(=O)Nc3ccccc3)cc2C1=O
AC50 [6]: 8.77 µM (active)

IC50 [8]: > 66 µM (inactive)
IC50 [9]: > 66 µM (inactive)
Structure (SMILES): N=C(N)SCP(=O)(c1ccccc1)c1ccccc1

IC50 [8]: > 66 µM (inactive)
IC50 [9]: > 66 µM (inactive)
Structure (SMILES): O=C(COc1ccccc1)Nc1nc(-c2ccncc2)cs1

Structure (SMILES): Cc1ccc(S(=O)(=O)N(C)C[C@H]2Oc3cc(-c4cccc(F)c4)ccc3S(=O)(=O)N([C@@H](C)CO)C[C@H]2C)cc1
AC50 [11]: 6.67 µM (active)
AC50 [12]: 1.47 µM (active)

Structure (SMILES): COc1ccc(NC(=O)Nc2ccc3c(c2)C(=O)N([C@H](C)CO)C[C@H](C)[C@H](CN(C)Cc2ccc(-c4ccccc4)cc2)O3)cc1
AC50 [6]: 4.77 µM (active)

IC50 [8]: > 66 µM (inactive)
IC50 [9]: > 66 µM (inactive)
Structure (SMILES): Cc1cc(C)cc(N2C(=O)CC(Sc3ccccc3C(=O)O)C2=O)c1 (stereo not given)

IC50 [8]: > 66 µM (inactive)
IC50 [9]: > 66 µM (inactive)
Structure (SMILES): CC(NC(=O)CSC1=NCCS1)c1ccccc1 (stereo not given)

Structure (SMILES): COc1ccc(NC(=O)Nc2cccc3c2O[C@@H](CN(C)Cc2ccc(C(=O)Nc4ccccc4N)cc2)[C@H](C)CN([C@H](C)CO)C3=O)cc1
AC50 [6]: 2.41 µM (active)
